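Cultured in 96-well plates, cells were exposed to test compound for 48 hours across five concentrations. TGI is the concentration that stops growth completely.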
Legend:
Assay in all cases: growth of human tumour cells (NCI), 48 h
786-0 renal = test system: 786-0 renal
A549 NSCLC = test system: A549 NSCLC
ACHN renal = test system: ACHN renal
CAKI-1 renal = test system: CAKI-1 renal
CCRF-CEM leukemia = test system: CCRF-CEM leukemia
COLO 205 colon = test system: COLO 205 colon
DU-145 prostate = test system: DU-145 prostate
EKVX NSCLC = test system: EKVX NSCLC
HCC-2998 colon = test system: HCC-2998 colon
HCT-116 colon = test system: HCT-116 colon
HCT-15 colon = test system: HCT-15 colon
HL-60(TB) leukemia = test system: HL-60(TB) leukemia
HOP-62 NSCLC = test system: HOP-62 NSCLC
HOP-92 NSCLC = test system: HOP-92 NSCLC
HS 578T breast = test system: HS 578T breast
HT29 colon = test system: HT29 colon
IGROV1 ovarian = test system: IGROV1 ovarian
K-562 leukemia = test system: K-562 leukemia
KM12 colon = test system: KM12 colon
LOX IMVI melanoma = test system: LOX IMVI melanoma
M14 melanoma = test system: M14 melanoma
MALME-3M melanoma = test system: MALME-3M melanoma
MCF7 breast = test system: MCF7 breast
MDA-MB-231 breast = test system: MDA-MB-231 breast
MDA-MB-435 = test system: MDA-MB-435
MDA-N = test system: MDA-N
MOLT-4 leukemia = test system: MOLT-4 leukemia
NCI-H226 lung = test system: NCI-H226 lung
NCI-H23 lung = test system: NCI-H23 lung
NCI-H460 lung = test system: NCI-H460 lung
NCI/ADR-RES ovarian = test system: NCI/ADR-RES ovarian
OVCAR-3 ovarian = test system: OVCAR-3 ovarian
OVCAR-4 ovarian = test system: OVCAR-4 ovarian
OVCAR-5 ovarian = test system: OVCAR-5 ovarian
OVCAR-8 ovarian = test system: OVCAR-8 ovarian
PC-3 prostate = test system: PC-3 prostate
RPMI-8226 leukemia = test system: RPMI-8226 leukemia
RXF 393 renal = test system: RXF 393 renal
SF-268 CNS = test system: SF-268 CNS
SF-295 CNS = test system: SF-295 CNS
SF-539 CNS = test system: SF-539 CNS
SK-MEL-2 melanoma = test system: SK-MEL-2 melanoma
SK-MEL-28 melanoma = test system: SK-MEL-28 melanoma
SK-MEL-5 melanoma = test system: SK-MEL-5 melanoma
SK-OV-3 ovarian = test system: SK-OV-3 ovarian
SN12C renal = test system: SN12C renal
SNB-19 CNS = test system: SNB-19 CNS
SNB-75 CNS = test system: SNB-75 CNS
SR leukemia = test system: SR leukemia
SW-620 colon = test system: SW-620 colon
T-47D breast = test system: T-47D breast
TK-10 renal = test system: TK-10 renal
U251 CNS = test system: U251 CNS
UACC-257 melanoma = test system: UACC-257 melanoma
UACC-62 melanoma = test system: UACC-62 melanoma
UO-31 renal = test system: UO-31 renal
A498 renal = test system: A498 renal
NCI-H522 lung = test system: NCI-H522 lung

c1ccc(C[n+]2ccc3c(c2)CCCC3)cc1
TGI (786-0 renal): > 100 µM | TGI (A549 NSCLC): > 100 µM | TGI (ACHN renal): > 100 µM | TGI (CAKI-1 renal): > 100 µM | TGI (CCRF-CEM leukemia): > 100 µM | TGI (COLO 205 colon): > 100 µM | TGI (DU-145 prostate): > 100 µM | TGI (EKVX NSCLC): 85.8 µM | TGI (HCC-2998 colon): > 100 µM | TGI (HCT-116 colon): > 100 µM | TGI (HCT-15 colon): > 100 µM | TGI (HL-60(TB) leukemia): > 100 µM | TGI (HOP-62 NSCLC): > 100 µM | TGI (HOP-92 NSCLC): > 100 µM | TGI (HS 578T breast): > 100 µM | TGI (HT29 colon): > 100 µM | TGI (IGROV1 ovarian): > 100 µM | TGI (K-562 leukemia): > 100 µM | TGI (KM12 colon): > 100 µM | TGI (LOX IMVI melanoma): > 100 µM | TGI (M14 melanoma): > 100 µM | TGI (MALME-3M melanoma): > 100 µM | TGI (MCF7 breast): > 100 µM | TGI (MDA-MB-231 breast): > 100 µM | TGI (MDA-MB-435): > 100 µM | TGI (MDA-N): > 100 µM | TGI (MOLT-4 leukemia): > 100 µM | TGI (NCI-H226 lung): > 100 µM | TGI (NCI-H23 lung): > 100 µM | TGI (NCI-H460 lung): > 100 µM | TGI (NCI/ADR-RES ovarian): > 100 µM | TGI (OVCAR-3 ovarian): > 100 µM | TGI (OVCAR-4 ovarian): > 100 µM | TGI (OVCAR-5 ovarian): > 100 µM | TGI (OVCAR-8 ovarian): > 100 µM | TGI (PC-3 prostate): > 100 µM | TGI (RPMI-8226 leukemia): > 100 µM | TGI (RXF 393 renal): > 100 µM | TGI (SF-268 CNS): > 100 µM | TGI (SF-295 CNS): > 100 µM | TGI (SF-539 CNS): > 100 µM | TGI (SK-MEL-2 melanoma): > 100 µM | TGI (SK-MEL-28 melanoma): > 100 µM | TGI (SK-MEL-5 melanoma): > 100 µM | TGI (SK-OV-3 ovarian): > 100 µM | TGI (SN12C renal): > 100 µM | TGI (SNB-19 CNS): > 100 µM | TGI (SNB-75 CNS): > 100 µM | TGI (SR leukemia): > 100 µM | TGI (SW-620 colon): > 100 µM | TGI (T-47D breast): > 100 µM | TGI (TK-10 renal): > 100 µM | TGI (U251 CNS): > 100 µM | TGI (UACC-257 melanoma): > 100 µM | TGI (UACC-62 melanoma): > 100 µM | TGI (UO-31 renal): > 100 µM

Cc1ccc(S(=O)(=O)N2CCCN(S(=O)(=O)c3ccc(C)cc3)CC2)cc1
TGI (A498 renal): 69.2 µM | TGI (ACHN renal): > 100 µM | TGI (CCRF-CEM leukemia): > 100 µM | TGI (COLO 205 colon): > 100 µM | TGI (DU-145 prostate): > 100 µM | TGI (HCC-2998 colon): > 100 µM | TGI (HCT-116 colon): > 100 µM | TGI (HCT-15 colon): > 100 µM | TGI (HOP-92 NSCLC): > 100 µM | TGI (HS 578T breast): > 100 µM | TGI (HT29 colon): > 100 µM | TGI (K-562 leukemia): > 100 µM | TGI (KM12 colon): > 100 µM | TGI (M14 melanoma): > 100 µM | TGI (MCF7 breast): > 100 µM | TGI (MDA-MB-231 breast): > 100 µM | TGI (MDA-MB-435): > 100 µM | TGI (MDA-N): > 100 µM | TGI (MOLT-4 leukemia): > 100 µM | TGI (NCI-H226 lung): > 100 µM | TGI (NCI-H23 lung): > 100 µM | TGI (NCI-H460 lung): > 100 µM | TGI (NCI-H522 lung): > 100 µM | TGI (NCI/ADR-RES ovarian): > 100 µM | TGI (OVCAR-3 ovarian): > 100 µM | TGI (OVCAR-4 ovarian): > 100 µM | TGI (OVCAR-8 ovarian): > 100 µM | TGI (PC-3 prostate): > 100 µM | TGI (RXF 393 renal): > 100 µM | TGI (SF-268 CNS): > 100 µM | TGI (SF-295 CNS): > 100 µM | TGI (SK-MEL-28 melanoma): > 100 µM | TGI (SK-MEL-5 melanoma): > 100 µM | TGI (SN12C renal): > 100 µM | TGI (SNB-19 CNS): > 100 µM | TGI (SNB-75 CNS): > 100 µM | TGI (SR leukemia): > 100 µM | TGI (SW-620 colon): > 100 µM | TGI (T-47D breast): > 100 µM | TGI (TK-10 renal): > 100 µM | TGI (U251 CNS): > 100 µM | TGI (UACC-257 melanoma): > 100 µM | TGI (UO-31 renal): > 100 µM

CC(C)=CCc1ccc2[nH]c3c(c2c1)C(=O)C(=O)C(C)=C3C(O)C(C)O (stereo unspecified)
TGI (786-0 renal): 3.27 µM | TGI (A498 renal): 25.8 µM | TGI (A549 NSCLC): 56.5 µM | TGI (ACHN renal): 11.5 µM | TGI (CAKI-1 renal): 11.5 µM | TGI (CCRF-CEM leukemia): 4.98 µM | TGI (COLO 205 colon): 4.89 µM | TGI (DU-145 prostate): 22.4 µM | TGI (EKVX NSCLC): 30.1 µM | TGI (HCC-2998 colon): 14.8 µM | TGI (HCT-116 colon): 3.43 µM | TGI (HCT-15 colon): 16.3 µM | TGI (HL-60(TB) leukemia): 2.53 µM | TGI (HOP-62 NSCLC): 37.8 µM | TGI (HOP-92 NSCLC): 3.51 µM | TGI (HS 578T breast): 50.1 µM | TGI (HT29 colon): 35.1 µM | TGI (IGROV1 ovarian): 7.2 µM | TGI (K-562 leukemia): 5.78 µM | TGI (KM12 colon): 30.1 µM | TGI (LOX IMVI melanoma): 4.73 µM | TGI (M14 melanoma): 3.9 µM | TGI (MALME-3M melanoma): 3.37 µM | TGI (MCF7 breast): 3.4 µM | TGI (MDA-MB-231 breast): 15.8 µM | TGI (MDA-MB-435): 9.57 µM | TGI (MDA-N): 19.7 µM | TGI (MOLT-4 leukemia): 4.83 µM | TGI (NCI-H226 lung): 34.2 µM | TGI (NCI-H23 lung): 31.8 µM | TGI (NCI-H460 lung): 37.2 µM | TGI (NCI/ADR-RES ovarian): > 85.4 µM | TGI (OVCAR-3 ovarian): 13 µM | TGI (OVCAR-4 ovarian): 13.2 µM | TGI (OVCAR-5 ovarian): 34.2 µM | TGI (OVCAR-8 ovarian): 3.91 µM | TGI (PC-3 prostate): 43.4 µM | TGI (RPMI-8226 leukemia): 6.17 µM | TGI (RXF 393 renal): 4.68 µM | TGI (SF-268 CNS): 25 µM | TGI (SF-295 CNS): 25 µM | TGI (SF-539 CNS): 34 µM | TGI (SK-MEL-2 melanoma): > 82.9 µM | TGI (SK-MEL-28 melanoma): 28.1 µM | TGI (SK-MEL-5 melanoma): 7.22 µM | TGI (SK-OV-3 ovarian): 29.7 µM | TGI (SN12C renal): 45.8 µM | TGI (SNB-19 CNS): 31 µM | TGI (SNB-75 CNS): 34.1 µM | TGI (SR leukemia): 12.4 µM | TGI (SW-620 colon): 4.7 µM | TGI (T-47D breast): 6.11 µM | TGI (TK-10 renal): 4.76 µM | TGI (U251 CNS): 13.2 µM | TGI (UACC-257 melanoma): 3.71 µM | TGI (UACC-62 melanoma): 11.6 µM | TGI (UO-31 renal): 2.96 µM
